Assay results from article PMC6364417, “Kinase inhibitor library screening identifies synergistic drug combinations effective in sensitive and resistant melanoma cells” (Journal of Experimental & Clinical Cancer Research : CR, 2019).

Key:
Experiment in all cases: Kinase inhibitor library screening, PrestoBlue cell viability, 1 or 10 μM, 72 h
501Mel cells (parental) = conditions: 501Mel Parental, 72 h, in %
Method in brief: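 Parental cells and Vemurafenib-resistant (XP) or Dabrafenib-resistant (GP) derivatives were treated with library kinase inhibitors at 1 and 10 μM for 72 h. Viability measured by PrestoBlue and expressed as % of untreated cells, at least in duplicate.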

[1] = tested on: 501Mel-GP cells (Dabrafenib-resistant); conditions: 501Mel GP, 72 h, in %
[2] = tested on: 501Mel-XP cells (Vemurafenib-resistant); conditions: 501Mel XP, 72 h, in %
A375 cells (parental) = conditions: A375 Parental, 72 h; for cell viability, A375 Parental, 1μΜ / cell viability, A375 Parental, 10μΜ: in %
[3] = tested on: A375-GP cells (Dabrafenib-resistant); conditions: A375 GP, 72 h; for cell viability, A375 GP, 1μΜ / cell viability, A375 GP, 10μΜ: in %
[4] = tested on: A375-XP cells (Vemurafenib-resistant); conditions: A375 XP, 72 h; for cell viability, A375 XP, 1μΜ / cell viability, A375 XP, 10μΜ: in %
IGR37 cells (parental) = conditions: IGR37 Parental, 72 h, in %
[5] = tested on: IGR37-GP cells (Dabrafenib-resistant); conditions: IGR37 GP, 72 h; for cell viability, IGR37 GP, 1μΜ / Cell viability in kinase inhibitor library screening, IGR37 GP, 1μΜ: in %
[6] = tested on: IGR37-XP cells (Vemurafenib-resistant); conditions: IGR37 XP, 72 h; for cell viability, IGR37 XP, 1μΜ / Cell viability in kinase inhibitor library screening, IGR37 XP, 1μΜ: in %

SMILES | cell viability, 501Mel Parental, 10μΜ (501Mel cells (parental)) | cell viability, 501Mel GP, 10μΜ [1] | cell viability, 501Mel XP, 1μΜ [2] | cell viability, 501Mel XP, 10μΜ [2] | cell viability, A375 Parental, 1μΜ (A375 cells (parental)) | cell viability, A375 Parental, 10μΜ (A375 cells (parental)) | cell viability, A375 GP, 1μΜ [3] | cell viability, A375 GP, 10μΜ [3] | cell viability, A375 XP, 1μΜ [4] | cell viability, A375 XP, 10μΜ [4] | cell viability, IGR37 Parental, 1μΜ (IGR37 cells (parental); 1μΜ) | cell viability, IGR37 Parental, 10μΜ (IGR37 cells (parental)) | cell viability, IGR37 GP, 10μΜ [5] | cell viability, IGR37 GP, 1μΜ [5] | cell viability, IGR37 XP, 10μΜ [6] | cell viability, IGR37 XP, 1μΜ [6] | Cell viability in kinase inhibitor library screening, 501Mel Parental, 1μΜ (501Mel cells (parental); 1μΜ) | Cell viability in kinase inhibitor library screening, 501Mel Parental, 10μΜ (501Mel cells (parental)) | Cell viability in kinase inhibitor library screening, 501Mel GP, 1μΜ ([1]; 1μΜ) | Cell viability in kinase inhibitor library screening, 501Mel GP, 10μΜ [1] | also measured
Cc1cnc(Nc2ccc(N3CCN(C)CC3)cc2)nc1Nc1cccc(S(=O)(=O)NC(C)(C)C)c1 [TG101209] | 0.6 | 1.7 | 85.2 | -0.127 | 87.8 | 11.9 | 79.9 | 14.4 | 93.3 | 13.1 | 97.5 | 6.5 | 3.2% | 98.5 | 1.6% | 82.7 | – | – | – | – | cell viability, 501Mel GP, 1μΜ ([1]; 1μΜ): 109.4
Cc1cnc(Nc2ccc(OCCN3CCCC3)cc2)nc1Nc1cccc(S(=O)(=O)NC(C)(C)C)c1 [TG101348 (SAR302503)] | 1.4 | 1.0 | 89.8 | -0.1 | 100.2 | 12.9 | 89.1 | 15.0 | 99.7 | 17.0 | 98.0 | 21.1 | 6.2% | 95.7 | 2% | 94.2 | – | – | – | – | cell viability, 501Mel Parental, 1μΜ (501Mel cells (parental); 1μΜ): 98.7
Nc1nc(N)c2nc(-c3cccc(O)c3)cnc2n1 [TG 100713] | – | – | – | – | – | – | – | – | – | – | – | – | – | – | – | – | 94.5 | 56.1 | 98.4 | 36.6 | Cell viability in kinase inhibitor library screening, 501Mel XP, 1μΜ [2]: 90.7; Cell viability in kinase inhibitor library screening, 501Mel XP, 10μΜ [2]: 26.9; Cell viability in kinase inhibitor library screening, A375 Parental, 10μΜ (A375 cells (parental)): 43.8; Cell viability in kinase inhibitor library screening, A375 Parental, 1μΜ (A375 cells (parental)): 94.5; Cell viability in kinase inhibitor library screening, A375 GP, 1μΜ [3]: 94.1; Cell viability in kinase inhibitor library screening, A375 GP, 10μΜ [3]: 37.7; Cell viability in kinase inhibitor library screening, A375 XP, 1μΜ [4]: 93.7; Cell viability in kinase inhibitor library screening, A375 XP, 10μΜ [4]: 40.5; Cell viability in kinase inhibitor library screening, IGR37 Parental, 10μΜ (IGR37 cells (parental)): 49.5; Cell viability in kinase inhibitor library screening, IGR37 GP, 10μΜ [5]: 58.8%; Cell viability in kinase inhibitor library screening, IGR37 GP, 1μΜ [5]: 93.1; Cell viability in kinase inhibitor library screening, IGR37 XP, 10μΜ [6]: 21.2%; Cell viability in kinase inhibitor library screening, IGR37 XP, 1μΜ [6]: 97.8
Cc1cc(C(C)Nc2ccccc2)c2nc(N3CCOCC3)cc(=O)n2c1 (stereo not drawn) [TGX-221] | – | – | – | – | – | – | – | – | – | – | – | – | – | – | – | – | 99.4 | 97.1 | 102.9 | 78.5 | Cell viability in kinase inhibitor library screening, 501Mel XP, 1μΜ [2]: 92.5; Cell viability in kinase inhibitor library screening, 501Mel XP, 10μΜ [2]: 67.8; Cell viability in kinase inhibitor library screening, A375 Parental, 10μΜ (A375 cells (parental)): 94.9; Cell viability in kinase inhibitor library screening, A375 Parental, 1μΜ (A375 cells (parental)): 103.0; Cell viability in kinase inhibitor library screening, A375 GP, 1μΜ [3]: 95.9; Cell viability in kinase inhibitor library screening, A375 GP, 10μΜ [3]: 91.3; Cell viability in kinase inhibitor library screening, A375 XP, 1μΜ [4]: 107.8; Cell viability in kinase inhibitor library screening, A375 XP, 10μΜ [4]: 99.8; Cell viability in kinase inhibitor library screening, IGR37 Parental, 1μΜ (IGR37 cells (parental); 1μΜ): 97.4; Cell viability in kinase inhibitor library screening, IGR37 Parental, 10μΜ (IGR37 cells (parental)): 96.6; Cell viability in kinase inhibitor library screening, IGR37 GP, 10μΜ [5]: 85.9%; Cell viability in kinase inhibitor library screening, IGR37 GP, 1μΜ [5]: 93.0; Cell viability in kinase inhibitor library screening, IGR37 XP, 10μΜ [6]: 61.6%; Cell viability in kinase inhibitor library screening, IGR37 XP, 1μΜ [6]: 95.0
